Measured values reported in paper PMC11591752, “Novel Inhibitory Actions of Neuroactive Steroid [3α,5α]-3-Hydroxypregnan-20-One on Toll-like Receptor 4-Dependent Neuroimmune Signaling” (Biomolecules, 2024).

Target: T1, MD-2 (Homo sapiens, UniProt Q9Y6Y9)
T1 construct: gene LY96; Recombinant human MD-2 (R&D Systems #1787-MD-050/CF), covalently immobilized
T1 sequence (Q9Y6Y9 19-160): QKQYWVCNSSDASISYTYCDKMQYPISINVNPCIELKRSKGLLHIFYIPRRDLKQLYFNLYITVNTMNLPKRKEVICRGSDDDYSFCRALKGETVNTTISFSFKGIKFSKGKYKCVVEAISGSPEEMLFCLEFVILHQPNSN
Assay: SPR competition assay: inhibition of Lipid A binding to immobilized hMD-2

**Q.** `CC(=O)[C@H]1CC[C@H]2[C@@H]3CC[C@H]4C[C@H](O)CC[C@]4(C)[C@H]3CC[C@]12C` [3α,5α-THP, (3α,5α)-3-hydroxypregnan-20-one] was tested. Which Ki did it give?
**A.** 4.5 ± 1.7 nM
